Experimental data reported in patent US5545653A (priority 1995, dated 1996).
Converted amounts (≈) assume the structure as drawn.

Legend:
Assay type in all cases: cell-based
[1] = test system: RhV-14 (Rhinovirus); test: microbe, parasite or virus in culture; settings: Enterovirus; 120 hours at 32° C.; read-out: IC50 (50 percent inhibition of plaque formation), RhV-14
[2] = test system: PV-1 (poliovirus); test: microbe, parasite or virus in culture; settings: Enterovirus C, 72 h, read-out: IC50 (50 percent inhibition of plaque formation), PV-1
[3] = test system: CS-21C (Coxsackie virus); test: organism not typed; settings: 72 hours at 37° C.; read-out: IC50 (50 percent inhibition of plaque formation), CS-21C

Row | SMILES | IC50 [1] [µg/mL] | IC50 [2] [µg/mL] | IC50 [3] [µg/mL]
1 | CC(C)S(=O)(=O)n1c(N)nc2ccc(C(=O)c3cccc(F)c3)cc21 [Example 3] | 2.14 (≈ 5.92 µM) | – | –
2 | CC(C)S(=O)(=O)n1c(N)nc2ccc(C(=O)c3cc(F)cc(F)c3)cc21 [Example 5] | 3.9 (≈ 10.3 µM) | – | –
3 | CC(C)S(=O)(=O)n1c(N)nc2ccc(C(=O)c3ccc(OC(F)(F)F)cc3)cc21 [Example 6] | 0.329 (≈ 0.77 µM) | – | –
4 | CC(C)S(=O)(=O)n1c(N)nc2ccc(C(=O)c3ccccc3F)cc21 [Example 11] | – | 1.7 (≈ 4.7 µM) | 0.44 (≈ 1.22 µM)
5 | CC(C)S(=O)(=O)n1c(N)nc2ccc(C(=O)c3cc(F)ccc3F)cc21 [Example 20] | 1.32 (≈ 3.48 µM) | 0.19 (≈ 0.501 µM) | –
